Paper PMC11292009, “Mapping protein binding sites by photoreactive fragment pharmacophores” (Communications Chemistry, 2024)

Legend:
Format in all cases: binding
KRas^G12D = system: T1, KRas^G12D; assay: Intact MS photoaffinity labeling screen, KRas G12D (302 nm, LCMS-TOF); settings: for experimental hit status KRAS-G12D: 0/1 flag; for MS labeling percentage, KRas: KRas G12D, 302 nm 10 min; for KRAS-G12D: experimental hit status flag (0/1)
T1 construct: purchased GSK/GenScript
How it was run: (§1)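 Labeling detected as mass additions in deconvoluted intact-protein LCMS-TOF spectra. Protein at 1 μM in PBS was first mixed with one fragment per well on ice for 15 min, followed by 10 min UV exposure at 302 nm.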

myoglobin (Myo) = assay: Intact protein MS photoaffinity labeling screen, myoglobin; settings: intact protein MS after 10 min irradiation
How it was run: (§2)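 Intact-protein mass spectrometry detected covalent adduct mass shifts, giving percent labeling per fragment. Beforehand, single fragments per well were pre-incubated 15 min with each benchmark protein ahead of photoactivation.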

[1] = system: carbonic anhydrase II (CA); assay: Intact protein MS photoaffinity labeling screen, carbonic anhydrase; settings: intact protein MS after 10 min irradiation
How it was run: as §2

STAT5B-NTD [2] = system: T2, STAT5B-NTD; assay: Intact MS photoaffinity labeling screen, STAT5B-NTD (365 nm, UHPLC-MS); settings: for experimental hit status STAT5B-NTD: 0/1 flag; for MS labeling percentage, STAT5B: STAT5B-NTD, 365 nm 10 min, no photocatalyst; for STAT5B-NTD: experimental hit status flag (0/1);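 as to MS labeling percentage, STAT5B: 0.17 µL of 100 mM DMSO fragment stock added to the protein sample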
T2 construct: His-SUMO (N, cleaved yes); made in house; host or cells: E. coli BL21 RILP
How it was run: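 Intact-protein labeling detected by UHPLC-MS in positive ion mode over m/z 100–2000. Samples were first photo-crosslinked at 365 nm for 10 min at 4 °C. Before irradiation, 7 µM STAT5B in PBS pH 7.4 was pre-incubated with probe for 1 h in the dark at room temperature.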

lysozyme (Lyo) = assay: Intact protein MS photoaffinity labeling screen, lysozyme; settings: intact protein MS after 10 min irradiation
How it was run: as §2

STAT5B-NTD [3] = system: T2, STAT5B-NTD; assay: Intact MS labeling screen, STAT5B-NTD conjugated with photocatalyst Ir-G2-PEG3-COOH (450 nm); settings: 450 nm 10 min;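 also: 0.14 µL of 100 mM DMSO fragment stock added to the conjugate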
How it was run: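 Ir-G2-PEG3-COOH photocatalyst (10 eq) activated 30 min with EDC/NHS/BOP, then conjugated to STAT5B-NTD (7 µM) overnight at RT or 1 h at 37 °C in dark. PhP added, 1 h dark, then 450 nm irradiation 10 min at 4 °C; labeling read by intact LC-MS, positive ion mode, m/z 100–2000.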

BRD4-BD1 = system: T3, BRD4-BD1; assay: Intact MS photoaffinity labeling screen, BRD4-BD1 (302 nm, LCMS-TOF); settings: for experimental hit status BRD4-BD1: 0/1 flag; for MS labeling percentage, BRD4: BRD4-BD1, 302 nm 10 min; for BRD4-BD1: experimental hit status flag (0/1)
T3 construct: screened the PhP library against the first bromodomain of BRD4 (BRD4-BD1); purchased GSK/GenScript
How it was run: as §1

[4] = sheet PhP, experimental hit status flag given as 0 or 1
[5] = PhP library sheet "PhP", binary flag printed as 0 or 1, key not given
[6] = hit flag 1/0, sheet PhP, photoaffinity labeling screen

| SMILES | MS labeling percentage, KRas (KRas^G12D) | MS labeling percentage, Myo (myoglobin (Myo)) | MS labeling percentage, CA [1] | MS labeling percentage, STAT5B (STAT5B-NTD [2]) | MS labeling percentage, Lyo (lysozyme (Lyo)) | MS labeling percentage, STAT5B+photocat (STAT5B-NTD [3]) | MS labeling percentage, BRD4 (BRD4-BD1) | further results |
| --- | --- | --- | --- | --- | --- | --- | --- | --- |
| Cn1c(CCNC(=O)CCC2(C)N=N2)nc2ccccc21 [PhP020, c1cccc(c12)n(C)c(n2)CCNC(=O)CCC3(C)N=N3] | 0% | 0.3% | 0.2% | 0% | 0% | 0.6% | 0.4% | experimental hit status KRAS-G12D (KRas^G12D): 0; experimental hit status STAT5B-NTD (STAT5B-NTD [2]): 0; experimental hit status BRD4-BD1 (BRD4-BD1): 0 |
| CN1C(=O)COc2ccc(NC(=O)CCC3(C)N=N3)cc21 [PhP007, O1CC(=O)N(C)c(c12)cc(cc2)NC(=O)CCC3(C)N=N3] | 0.2% | 0.1% | 0.2% | 1% | 1.8% | 12.7% | 0.4% | KRAS-G12D (KRas^G12D): 0; STAT5B-NTD (STAT5B-NTD [2]): 0; BRD4-BD1 (BRD4-BD1): 0 |
| Cc1nc2ccccc2n1CCNC(=O)CCC1(C)N=N1 [PhP073, c1cccc(c12)n(c(n2)C)CCNC(=O)CCC3(C)N=N3] | 0.1% | 0.2% | 0% | 1% | 0% | 1.6% | 0.3% | KRAS-G12D (experimental hit status) (KRas^G12D; [4]): 0; STAT5B-NTD (experimental hit status) (STAT5B-NTD [2]; [4]): 0; BRD4-BD1 (experimental hit status) (BRD4-BD1; [4]): 0 |
| Cn1nccc1C(=O)NCCNC(=O)CCC1(C)N=N1 [PhP095, Cn1nccc1C(=O)NCCNC(=O)CCC2(C)N=N2] | 0.1% | 0.1% | 0.2% | 0% | 0% | 2.4% | 0.4% | KRAS-G12D (experimental hit status) (KRas^G12D; [5]): 0; STAT5B-NTD (experimental hit status) (STAT5B-NTD [2]; [5]): 0; BRD4-BD1 (experimental hit status) (BRD4-BD1; [5]): 0 |
| CCc1cc(NC(=O)CCC2(C)N=N2)nc(C)n1 [PhP076, CCc1cc(nc(n1)C)NC(=O)CCC2(C)N=N2] | 0.2% | 0.2% | 0.1% | 2% | 0% | 3.2% | 0.9% | KRAS-G12D (experimental hit status) (KRas^G12D; [4]): 0; STAT5B-NTD (experimental hit status) (STAT5B-NTD [2]; [4]): 0; BRD4-BD1 (experimental hit status) (BRD4-BD1; [4]): 0 |
| CC1(CCC(=O)NCCCc2nc3ccccc3[nH]2)N=N1 [PhP069, N1=NC1(C)CCC(=O)NCCCc(n2)[nH]c(c23)cccc3] | 0.5% | 0.2% | 0.2% | 1% | 0% | 0.8% | 1.5% | KRAS-G12D (experimental hit status) (KRas^G12D; [4]): 0; STAT5B-NTD (experimental hit status) (STAT5B-NTD [2]; [4]): 0; BRD4-BD1 (experimental hit status) (BRD4-BD1; [4]): 0 |
| CC1CN(Cc2ccccc2NC(=O)CCC2(C)N=N2)CC(C)O1 (centres unmarked) [PhP078, CC1CN(CC(O1)C)Cc2ccccc2NC(=O)CCC3(C)N=N3] | 0% | 0.2% | 0.4% | 0% | 0% | 0.7% | 0.4% | KRAS-G12D (experimental hit status) (KRas^G12D; [5]): 0; STAT5B-NTD (experimental hit status) (STAT5B-NTD [2]; [5]): 0; BRD4-BD1 (experimental hit status) (BRD4-BD1; [5]): 0 |
| CC1(CCC(=O)NCCSCc2ccccc2)N=N1 [PhP051, N1=NC1(C)CCC(=O)NCCSCc2ccccc2] | 0% | 0.1% | 1% | 0% | 0% | 1% | 0.2% | KRAS-G12D (experimental hit status) (KRas^G12D; [6]): 0; STAT5B-NTD (experimental hit status) (STAT5B-NTD [2]; [6]): 0; BRD4-BD1 (experimental hit status) (BRD4-BD1; [6]): 0 |
| CC1(CCC(=O)NCc2cccc(C(=O)OC(C)(C)C)c2)N=N1 [PhP024, CC(C)(C)OC(=O)c1cccc(c1)CNC(=O)CCC2(C)N=N2] | 0.1% | 0.2% | 0.2% | 0% | 0% | 7.2% | 1.4% | experimental hit status KRAS-G12D (KRas^G12D): 0; experimental hit status STAT5B-NTD (STAT5B-NTD [2]): 0; experimental hit status BRD4-BD1 (BRD4-BD1): 0 |
| COC(=O)C(Cc1c[nH]c2ccccc12)NC(=O)CCC1(C)N=N1 (centres unmarked) [PhP014, N1=NC1(C)CCC(=O)NC(C(=O)OC)Cc(c[nH]2)c(c23)cccc3] | 1.3% | 0.1% | 0.3% | 2% | 0.3% | 7.7% | 0.4% | KRAS-G12D (KRas^G12D): 0; STAT5B-NTD (STAT5B-NTD [2]): 0; BRD4-BD1 (BRD4-BD1): 0 |
| COC(=O)[C@@H](Cc1c[nH]c2ccccc12)NC(=O)CCC1(C)N=N1 [PhP036, N1=NC1(C)CCC(=O)N[C@@H](C(=O)OC)Cc(c[nH]2)c(c23)cccc3] | 1% | 0% | 0.2% | 2% | 0.4% | 5.4% | 0.6% | experimental hit status KRAS-G12D (KRas^G12D): 0; experimental hit status STAT5B-NTD (STAT5B-NTD [2]): 0; experimental hit status BRD4-BD1 (BRD4-BD1): 0 |
